# Values quoted from earlier work, collected in patent US4377591A, “7-Oxo-1-azabicyclo[3.2.0]hept-2-ene-2-carboxylic acid derivatives, their use and preparation” (Sankyo Company, Limited, priority 1980, dated 1983).
# Tested on: bacteria
# Settings: Japanese Patent Application Kokai No. 73191/76
smiles,measurement,value
"C[C@@H](O)[C@H]1C(=O)N2C(C(=O)O)=C(SCCN)C[C@H]12 [thienamycin, (5R,6S)-3-(2-aminoethylthio)-6-[1-(R)-hydroxyethyl]-7-oxo-1-azabicyclo[3.2.0]hept-2-ene-2-carboxylic acid]",antibacterial activity (in words),extraordinarily potent antibacterial activity
